# Assay results taken from patent US20230391760A1, “HETEROCYCLIC GLP-1 AGONISTS” (Gasherbrum Bio, Inc., priority 2020, published 2023).
# Target: GLP-1 Receptor (Homo sapiens, UniProt P43220)
# Assay: GLP-1R agonist cAMP stimulation assay (HEK293/GLP1R/CRE-LUC cells, cAMP dynamic 2 Kit)
# Type: cell-based
# Conditions: HEK293/CRE-Luc cell line stably expressing the GLP-1 Receptor, 30 min at 37° C.
# How it was run: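 cAMP measured by HTRF competition (d2-labelled cAMP with cryptate antibody, 1 h, room temperature, protected from light). Before that, GLP1R/CRE-Luc HEK293 cells (1000/well) were exposed for 30 min at 37 °C to half-log compound dilutions in DPBS containing IBMX 0.5 mM and BSA 0.1%.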
# GLP-1 Receptor, sequence (P43220 24-463, species assumed): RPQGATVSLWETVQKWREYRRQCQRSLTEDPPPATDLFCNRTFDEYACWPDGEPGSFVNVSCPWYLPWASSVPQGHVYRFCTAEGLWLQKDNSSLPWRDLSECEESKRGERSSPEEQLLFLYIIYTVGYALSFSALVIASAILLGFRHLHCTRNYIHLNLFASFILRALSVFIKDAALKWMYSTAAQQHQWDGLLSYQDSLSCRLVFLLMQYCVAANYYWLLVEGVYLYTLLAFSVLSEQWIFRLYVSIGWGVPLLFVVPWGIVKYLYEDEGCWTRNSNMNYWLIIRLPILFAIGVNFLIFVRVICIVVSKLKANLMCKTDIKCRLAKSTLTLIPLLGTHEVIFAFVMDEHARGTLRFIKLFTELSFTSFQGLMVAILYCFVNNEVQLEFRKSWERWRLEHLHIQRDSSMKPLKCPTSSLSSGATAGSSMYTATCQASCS
row,Compound,EC50 [nM]
1,"O=C(Nc1ccc2c(c1)nc(CN1CCC(c3cccc(OCc4ccc(Cl)cc4F)n3)CC1)n2C[C@@H]1CCO1)C1CCS(=O)(=O)CC1 [Compound 156a, N-{2-[(4-{6-[(4-chloro-2-fluorophenyl)methoxy]pyridin-2-yl}piperidin-1-yl)methyl]-1-{[(2S)-oxetan-2-yl]methyl}-1H-1,3-benzodiazol-5-yl}-1,1-dioxo-1λ^6-thiane-4-carboxamide]",3
2,"CC1(C)CCC(C(=O)Nc2ccc3c(c2)nc(CN2CCC(c4cccc(OCc5ccc(Cl)cc5F)n4)CC2)n3C[C@@H]2CCO2)CO1 (stereo partly drawn) [Compound 192a, N-{2-[(4-{6-[(4-chloro-2-fluorophenyl)methoxy]pyridin-2-yl}piperidin-1-yl)methyl]-1-{[(2S)-oxetan-2-yl]methyl}-1H-1,3-benzodiazol-5-yl}-6,6-dimethyloxane-3-carboxamide]",6.2
3,"CC1(c2ccc(Cl)cc2)Oc2cccc(C3CCN(Cc4nc5cc(-c6nnc(C(F)(F)F)[nH]6)cnc5n4C[C@@H]4CCO4)CC3)c2O1 (stereo partly drawn) [Compound 225a, 4-[2-(4-chlorophenyl)-2-methyl-2H-1,3-benzodioxol-4-yl]-1-[(3-{[(2S)-oxetan-2-yl]methyl}-6-[5-(trifluoromethyl)-4H-1,2,4-triazol-3-yl]-3H-imidazo[4,5-b]pyridin-2-yl)methyl]piperidine]",0.064
4,"CCC(=O)Nc1ccc2c(c1)nc(CN1CCC(c3cccc(OCc4ccc(Cl)cc4F)n3)CC1)n2C[C@@H]1CCO1 [Compound 102a, (S)—N-(2-((4-(6-((4-chloro-2-fluorobenzyl)oxy)pyridin-2-yl)piperidin-1-yl)methyl)-1-(oxetan-2-ylmethyl)-1H-benzo[d]imidazol-5-yl)propionamide]",0.539
5,"CC1(c2ccc(Cl)cc2F)Oc2cccc(C3CCN(Cc4nc5cc(-c6noc(=O)[nH]6)ccc5n4CC4(C#N)CC4)CC3)c2O1 (stereo not shown) [Compound 231a, 1-((2-((4-(2-(4-chloro-2-fluorophenyl)-2-methylbenzo[d][1,3]dioxol-4-yl)piperidin-1-yl)methyl)-5-(5-oxo-4,5-dihydro-1,2,4-oxadiazol-3-yl)-1H-benzo[d]imidazol-1-yl)methyl)cyclopropane-1-carbonitrile]",0.031
6,"CC(C(=O)Nc1ccc2c(c1)nc(CN1CCC(c3cccc(OCc4ccc(Cl)cc4F)n3)CC1)n2C[C@@H]1CCO1)n1ccnc1 (stereo partly drawn) [Compound 195a, N-{2-[(4-{6-[(4-chloro-2-fluorophenyl)methoxy]pyridin-2-yl}piperidin-1-yl)methyl]-1-{[(2S)-oxetan-2-yl]methyl}-1H-1,3-benzodiazol-5-yl}-2-(1H-imidazol-1-yl)propanamide]",0.63
7,"CC1(c2ccc(Cl)cc2F)Oc2cccc(C3CCN(Cc4nc5cc(-c6noc(=O)[nH]6)ccc5n4C[C@@H]4CCO4)CC3)c2O1 (mixture of isomers) [Compound 239a, 3-(2-((4-(2-(4-chloro-2-fluorophenyl)-2-methylbenzo[d][1,3]dioxol-4-yl)piperidin-1-yl)methyl)-1-(((S)-oxetan-2-yl)methyl)-1H-benzo[d]imidazol-5-yl)-1,2,4-oxadiazol-5(4H)-one]",0.071
8,"Cc1ccnn1C(C)C(=O)Nc1ccc2c(c1)nc(CN1CCC(c3cccc(OCc4ccc(Cl)cc4F)n3)CC1)n2C[C@@H]1CCO1 (stereo partly drawn) [Compound 185a, N-{2-[(4-{6-[(4-chloro-2-fluorophenyl)methoxy]pyridin-2-yl}piperidin-1-yl)methyl]-1-{[(2S)-oxetan-2-yl]methyl}-1H-1,3-benzodiazol-5-yl}-2-(5-methyl-1H-pyrazol-1-yl)propanamide]",5.3
9,"CC1(c2ccc(Cl)cc2F)Oc2cccc(C3CCN(Cc4nc5cc(-c6nnn[nH]6)ccc5n4C[C@@H]4CCO4)CC3)c2O1 (stereo partly drawn) [Compound 232a, 2-((4-(2-(4-chloro-2-fluorophenyl)-2-methylbenzo[d][1,3]dioxol-4-yl)piperidin-1-yl)methyl)-1-(((S)-oxetan-2-yl)methyl)-5-(1H-tetrazol-5-yl)-1H-benzo[d]imidazole]",0.16
10,"N#Cc1ccc(COc2cccc(C3=CCN(Cc4nc5cc(-c6nnc(C(F)(F)F)[nH]6)cnc5n4C[C@@H]4CCO4)CC3)c2)c(F)c1 [Compound 317a, 3-fluoro-4-[(3-{1-[(3-{[(2S)-oxetan-2-yl]methyl}-6-[5-(trifluoromethyl)-4H-1,2,4-triazol-3-yl]-3H-imidazo[4,5-b]pyridin-2-yl)methyl]-1,2,3,6-tetrahydropyridin-4-yl}phenoxy)methyl]benzonitrile]",0.11
11,"CC1(c2ccc(C#N)cc2F)Oc2cccc(C3CCN(Cc4nc5cc(-c6nnc(C7CC7)[nH]6)cnc5n4C[C@@H]4CCO4)CC3)c2O1 (stereo partly drawn) [Compound 276a, 4-[4-(1-{[6-(5-cyclopropyl-4H-1,2,4-triazol-3-yl)-3-{[(2S)-oxetan-2-yl]methyl}-3H-imidazo[4,5-b]pyridin-2-yl]methyl}piperidin-4-yl)-2-methyl-2H-1,3-benzodioxol-2-yl]-3-fluorobenzonitrile]",0.56

# Second part, the molecule after the results:
row,EC50 [nM],Compound
1,0.054,"Fc1cc(Cl)ccc1COc1nc(C2CCN(Cc3nc4cc(-c5nnc(C(F)(F)F)[nH]5)nnc4n3C[C@@H]3CCO3)CC2)ccc1F [Compound 488a, 2-[(4-chloro-2-fluorophenyl)methoxy]-3-fluoro-6-{1-[(7-{[(2S)-oxetan-2-yl]methyl}-3-[5-(trifluoromethyl)-4H-1,2,4-triazol-3-yl]-7H-imidazo[4,5-c]pyridazin-6-yl)methyl]piperidin-4-yl}pyridine]"
2,0.04,"C[C@H]1CN(c2cccc(OCc3ccc(Cl)cc3F)n2)CCN1Cc1nc2cc(-c3nnc(C(F)(F)F)[nH]3)nnc2n1C[C@@H]1CCO1 [Compound 519a, (2S)-4-{6-[(4-chloro-2-fluorophenyl)methoxy]pyridin-2-yl}-2-methyl-1-[(7-{[(2S)-oxetan-2-yl]methyl}-3-[5-(trifluoromethyl)-4H-1,2,4-triazol-3-yl]-7H-imidazo[4,5-c]pyridazin-6-yl)methyl]piperazine]"
3,0.6,"CC1(c2ccc(Cl)cc2)Oc2cccc(C3=CCN(Cc4nc5cc(-c6nnc(C(F)(F)F)[nH]6)ccc5n4CC4(C#N)CC4)CC3)c2O1 (stereo not shown) [Compound 413, 1-{[2-({4-[2-(4-chlorophenyl)-2-methyl-2H-1,3-benzodioxol-4-yl]-1,2,3,6-tetrahydropyridin-1-yl}methyl)-5-[5-(trifluoromethyl)-4H-1,2,4-triazol-3-yl]-1H-1,3-benzodiazol-1-yl]methyl}cyclopropane-1-carbonitrile]"
4,0.0065,"C[C@]1(c2ccc(Cl)cc2F)Oc2cccc(C3CCN(Cc4nc5cc(-c6nnn[nH]6)ncc5n4C[C@@H]4CCO4)CC3)c2O1 [Compound 417a, 4-[(2S)-2-(4-chloro-2-fluorophenyl)-2-methyl-2H-1,3-benzodioxol-4-yl]-1-[(3-{[(2S)-oxetan-2-yl]methyl}-6-(1H-1,2,3,4-tetrazol-5-yl)-3H-imidazo[4,5-c]pyridin-2-yl)methyl]piperidine]"
5,0.12,"CO[C@H](C)Cn1c(CN2CCC(c3cccc4c3O[C@@](C)(c3ccc(Cl)cn3)O4)CC2)nc2cc(-c3nnc(C(F)(F)F)[nH]3)ncc21 [Compound 455a, 5-chloro-2-[(2S)-4-[1-({3-[(2R)-2-methoxypropyl]-6-[5-(trifluoromethyl)-4H-1,2,4-triazol-3-yl]-3H-imidazo[4,5-c]pyridin-2-yl}methyl)piperidin-4-yl]-2-methyl-2H-1,3-benzodioxol-2-yl]pyridine]"
6,0.026,"O=c1[nH]c(-c2cc3nc(CN4CCC(c5ccc(F)c(OCc6ccc(Cl)cc6F)n5)CC4)n(C[C@@H]4CCO4)c3cn2)no1 [Compound 438a, 3-{2-[(4-{6-[(4-chloro-2-fluorophenyl)methoxy]-5-fluoropyridin-2-yl}piperidin-1-yl)methyl]-3-{[(2S)-oxetan-2-yl]methyl}-3H-imidazo[4,5-c]pyridin-6-yl}-4,5-dihydro-1,2,4-oxadiazol-5-one]"
7,0.48,"Fc1cc(Cl)ccc1COc1ncccc1C1=CCN(Cc2nc3cc(-c4nnc(C(F)(F)F)[nH]4)ccc3n2C[C@@H]2CCO2)CC1 [Compound 390a, 2-[(4-chloro-2-fluorophenyl)methoxy]-1′-[(1-{[(2S)-oxetan-2-yl]methyl}-5-[5-(trifluoromethyl)-4H-1,2,4-triazol-3-yl]-1H-1,3-benzodiazol-2-yl)methyl]-1′,2′,3′,6′-tetrahydro-3,4′-bipyridine]"
8,0.13,"CC1(c2ccc(Cl)cn2)Oc2cccc(C3CCN(Cc4nc5cc(-c6nnc(C(F)(F)F)[nH]6)ncc5n4C[C@@H]4CCCO4)CC3)c2O1 (stereo partly drawn) [Compound 425a, 5-chloro-2-(2-methyl-4-{1-[(3-{[(2S)-oxolan-2-yl]methyl}-6-[5-(trifluoromethyl)-4H-1,2,4-triazol-3-yl]-3H-imidazo[4,5-c]pyridin-2-yl)methyl]piperidin-4-yl}-2H-1,3-benzodioxol-2-yl)pyridine]"
9,0.04,"C[C@]1(c2ccc(Cl)cn2)Oc2cccc(C3CCN(Cc4nc5cc(-c6noc(=O)[nH]6)ncc5n4C[C@@H]4CCO4)CC3)c2O1 [Compound 430a, 3-[2-({4-[(2S)-2-(5-chloropyridin-2-yl)-2-methyl-2H-1,3-benzodioxol-4-yl]piperidin-1-yl}methyl)-3-{[(2S)-oxetan-2-yl]methyl}-3H-imidazo[4,5-c]pyridin-6-yl]-4,5-dihydro-1,2,4-oxadiazol-5-one]"
10,0.0037,"C[C@]1(c2ccc(Cl)cc2F)Oc2cccc(C3CCN(Cc4nc5cc(-c6nnc(C#N)[nH]6)ncc5n4C[C@@H]4CCO4)CC3)c2O1 [Compound 444a, 5-[2-({4-[(2S)-2-(4-chloro-2-fluorophenyl)-2-methyl-2H-1,3-benzodioxol-4-yl]piperidin-1-yl}methyl)-3-{[(2S)-oxetan-2-yl]methyl}-3H-imidazo[4,5-c]pyridin-6-yl]-4H-1,2,4-triazole-3-carbonitrile]"
11,0.02,"CC1(c2ccc(C#N)cc2F)Oc2cccc(C3CCN(Cc4nc5cc(-c6nnc(C(F)(F)F)[nH]6)cnc5n4C[C@@H]4CCO4)CC3)c2O1 (stereo partly drawn) [Compound 403a, 3-fluoro-4-(2-methyl-4-{1-[(3-{[(2S)-oxetan-2-yl]methyl}-6-[5-(trifluoromethyl)-4H-1,2,4-triazol-3-yl]-3H-imidazo[4,5-b]pyridin-2-yl)methyl]piperidin-4-yl}-2H-1,3-benzodioxol-2-yl)benzonitrile]"
